Literature values in patent US20090011014A1, “Tablet Formulation for Sustained Drug-Release” (UNIVERSITE DE MONTREAL, priority 2004, published 2009).
Structures can show the parent of a compound that is named as a salt. Where two headings read alike, the source gives them in different places. Each block holds one compound with its values, some of them ahead of it.

Key:
[1] = 400-mg substituted amylose tablet containing 10% of drug; example 5 and FIG. 16 of U.S. Pat. No. 5,879,707

Solubility, U.S.P. XXIII descriptive term (hydrochloride): freely soluble
Compound: CC(NC(C)(C)C)C(=O)c1cccc(Cl)c1 (stereo not shown) [bupropion hydrochloride]

Influence of pH on solubility (physiological conditions): not influenced by pH
Compound: CC(=O)Nc1ccc(O)cc1 [Acetaminophen]

Compound: O=C([O-])c1ccccc1O.[Na+] [Sodium salicylate]
Time for release of 95% of the drug [1]: 6.5 h
Solubility, U.S.P. XXIII descriptive term: freely soluble
